This note sets out measurements from PubChem BioAssay (NCI).

Values joined by “and” are separate entries in the source; they are usually repeats but may differ in a detail not shown here. Equal values may be shown once.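 Growth conditions: 96-well plates. Treatment: test compound, 48 hours, 5 concentrations. Analysis: linear interpolation between bracketing concentrations; unreached endpoints set to highest concentration. GI50 = concentration required for 50% inhibition of growth. Definition used: TGI = concentration required for complete inhibition of growth.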 Where only a bound is given, the exact number is not on record here.

Holding throughout (assay): DTP human tumour cell line panel, 48 h
For assay [1], the system named is NCI-H460 lung.
For assay [2], the system named is NCI-H23 lung.
The subject of assay [3] is MOLT-4 leukemia.
The subject of assay [4] is MALME-3M melanoma.
Assay [5] deals with SN12C renal.
Assay [6] has as its system OVCAR-5 ovarian.
The test system of assay [7] is CAKI-1 renal.
Assay [8] concerns TK-10 renal.
In assay [9] the test system is A549 NSCLC.
For assay [10], the system named is MCF7 breast.

Broadly, the GI50 is the concentration giving 50% growth inhibition. What is called TGI is the concentration at which net growth stops. The low end stands for greater sensitivity of the cells, the high end for lower sensitivity of the cells. Take `C=CCN=C(N/N=C/c1ccc([N+](=O)[O-])o1)NS(=O)(=O)c1cc(C(=O)Nc2ccc(Cl)cc2)c(Cl)cc1SC`: the GI50 in assay [1] is 2.22 µM; in [2] it was greater than 62.7 µM; in assay [4] it was 5.08 µM; in [5], 2.63 µM; in assay [6] it was 14.1 µM; in assay [7] it was 8.55 µM. Further, the GI50 in assay [8] was greater than 90.8 µM; in assay [9], greater than 37.3 µM; in assay [10], 1.28 µM. Further, the TGI in assay [1] is greater than 35.2 µM; in assay [2] it was greater than 100 µM; in [3], greater than 39.5 µM; in assay [4] it was 63.4 µM; in assay [5], greater than 100 µM; in assay [6] it was greater than 100 µM. Besides, the TGI in assay [7], in assay [8], in [9] and in assay [10] was greater than 100 µM throughout.

Consider `CC1=NN(C(=O)c2ccccc2O)C(=O)/C1=C/c1ccc(O)cc1`, for which the TGI in [1] was greater than 100 µM; in [2], 19.9 µM; in assay [3] it was greater than 100 µM; in [4], greater than 100 µM; in [5], greater than 78.7 µM; in assay [6], greater than 100 µM. The total growth inhibition concentration (TGI) in assay [7], in [8], in [9] and in [10] was greater than 100 µM throughout.

In the case of `O=C(Nc1ccc(Br)cc1F)c1cc(I)ccc1O`, the GI50 in assay [1] is 3.15 µM; in assay [2], 1.9 µM; in assay [3], 2.66 µM; in assay [4], 2.07 µM; in assay [5] it was 2.75 µM; in [6], 3.17 µM. For the same compound, the GI50 is 1.83 µM in [7], 4.77 µM in assay [8], 3.17 µM in assay [9] and 1.97 µM in [10]. Moreover, the TGI was greater than 100 µM in assay [1]; 6.01 µM in assay [2]; 7.48 µM in assay [3]; 5.56 µM in [4]; 9.91 µM in assay [5]; greater than 100 µM in assay [6]. The TGI was 6.51 µM in [7], 9.43 µM in assay [8], greater than 100 µM in [9] and greater than 100 µM in [10].

As for `C[C@H]1CC[C@@]2(NC1)O[C@H]1C[C@H]3[C@@H]4CC[C@H]5C[C@@H](O)CC[C@]5(C)[C@H]4CC[C@]3(C)[C@H]1[C@@H]2C`, the GI50 is 11.9 µM in [1]; 8.92 µM in [2]; greater than 50 µM in [3]; 11.2 µM in assay [4]; 11.2 µM in assay [5]; 8.71 µM in assay [6]. The GI50 was 12.9 µM in assay [7], 11.1 µM in assay [8], 19.6 µM in [9] and 12.9 µM in [10]. The TGI was 34.8 µM and > 100 µM in [1]; 19.7 µM and > 100 µM in assay [2]; greater than 100 µM in [3]; 31.5 µM in [4]; 29.9 µM and > 100 µM in assay [5]; 18.4 µM and > 100 µM in [6]. The TGI in assay [7] was 34.5 µM and > 100 µM; in assay [8], 25.3 µM and > 100 µM; in assay [9], 50 µM and > 100 µM; in [10], 36.8 µM and > 100 µM.

Consider `C[C@@H]1[C@H](C)N1CC(O)Cn1ccnc1[N+](=O)[O-]` (some centres undefined), for which the TGI in [1], in assay [2], in [3], in [4], in [5] and in [6] was greater than 100 µM each time. Also, the TGI in [7], in assay [8], in assay [9] and in [10] was greater than 100 µM each time.

As to `O=C1OCC2=C1C(c1cccc(Cl)c1)c1cc3c(cc1N2CCO)OCCO3` (centres undefined), the GI50 in [1] was 0.0494 µM; in assay [2] it was 0.097 µM; in assay [3], 0.348 µM; in assay [4], 0.0551 µM; in assay [5], 0.27 µM; in assay [6] it was 0.539 µM. Besides, the concentration for 50% growth inhibition (GI50) in [7] is 0.0697 µM; in assay [8], 0.12 µM; in [9] it was 0.132 µM; in assay [10], 0.0379 µM. The TGI in assay [1] was 4.59 µM; in [2], greater than 57.2 µM; in assay [3] it was greater than 100 µM; in [4], greater than 100 µM; in assay [5], 46.3 µM; in assay [6] it was greater than 100 µM. Further, the TGI was greater than 55.6 µM in [7], 37.3 µM in [8], 4.35 µM in [9] and 97.6 µM in [10].

Regarding `NC(=O)N/N=C1/CCC(O)CC1CC(=O)O` (centres undefined), the TGI in [1], in assay [2], in assay [3], in assay [4], in [5] and in assay [6] was greater than 100 µM in each case. In addition, the TGI in assay [7], in assay [8], in assay [9] and in assay [10] was greater than 100 µM throughout.
